Experimental data from patent US20080293583A1, “Methods for diagnosing mood disorders” (Wyeth, priority 2003, published 2008).

Test system: progenitor stem cells in the subgranular zone (SGZ) of the hippocampus
Experiment: BrdU immunostaining, long-term survivability of progenitor stem cells in SGZ
Type: in vivo, rat
Conditions: for number of surviving cells in the SGZ relative to saline controls / basal levels: 4 weeks after the last BrdU injection
Description: Antidepressant treatment and BrdU dosing. Dosing of adult male Sprague Dawley rats was performed as described above for 14 days (n=10 rats per group). To evaluate the effect of chronic antidepressant treatment on proliferation of progenitor stem cells, 24 hours after the last antidepressant injection, rats were administered BrdU (Sigma, St. Louis, Mo.) (50 mg/kg rig ip injection twice a day) for 4 days prior to euthanesia. To evaluate the effect of chronic antidepressant treatment on survival of progenitor stem cells, a sub-group of rats were allowed to live for 4 weeks after BrdU injection. All rats were perfused through the ascending aorta with 50 ml of 0.9% saline, followed by 400 ml of freshly prepared 4% paraformaldehyde in PBS (pH 7.5). After 30-60 minutes post-perfusion, rat brains were removed and postfixed in 4% paraformaldehyde in PBS overnight, followed by immersion in 30% sucrose/PBS solution for 48-72 hours at 4° C. Brains were rapidly frozen on dry-ice and stored at −80° C. Brain sectioning and staining for BrdU immunoreactivity were performed as previously described by Malberg et al. (2000). Briefly, serial coronal sections of each brain were cut (35 μm thickness) through the entire hippocampus (stereotaxic plates 26-40 according to Paxinos, Watson and Emson, 1980) using a freezing microtome. Every sixth section throughout the hippocampus was processed for BrdU staining. Free-floating sections were maintained in 100 mM PBS (about 100 sections per brain). DNA denaturation of the sections was performed as follows: sections were treated with 50% formamide/50% 2×SSC (0.3 M NaCl/0.03 M sodium citrate) for 2 hours at 65° C., rinsed in PBS (2 times for 5 minutes at room temperature), incubated with 2 N HCl for 30 minutes, followed by 0.1 M boric acid buffer (pH 8.5) for 10 minutes and a final rinse in PBS. For BrdU immunostaining, sections were incubated with 3% H2O2 in PBS for 30 minutes, rinsed in PBS and blocked with 3% normal horse serum in 0.01% TritonX-100 for 30 minutes. Anti-mouse BrdU (1:250 Sigma) was applied to the free-floating sections and incubated overnight at 4° C. The sections were rinsed in PBS, incubated with biotinylated horse, anti-mouse IgG (Vector Lab) for 30 minutes and washed in PBS. ABC reagent complex (Vectastain Elite kit from Vector) was added (as per manufacturer's instructions) for 30 minutes, followed by rinsing in PBS and color development with DAB solution for 4 minutes. Sections were mounted on glass slides and coverslipped. All BrdU labeled cells in the subgranular zone (SGZ) were counted in each section by an experimenter blinded to the study code. All counts were performed at 200× magnification using a light microscope (Zeiss Axiovert 135). The total number of BrdU labeled cells per section were determined and multiplied by 12 to obtain the total number of cells per dentate gyrus. Comparative analyses between treatments were performed using a Tukey HSD post hoc analysis for multiple comparisons.
In vivo studies were performed to measure the effects of antidepressant drug treatment on adult hippocampal neurogenesis by immunological methods. The method used to detect cell proliferation involved 5-bromo-2-deoxyuridine (BrdU) dosing twice a day for 4 days after a 2 week systemic administration of either saline, fluoxetine or venlafaxine. The presence of BrdU within the vicinity of dividing progenitor stem cells in the hippocampal region allowed for its incorporation and the detection of DNA synthesis (the more cell proliferation the more DNA synthesis). The number of BrdU-positive cells was visualized by immunoperoxidase staining. The BrdU immunostaining and quantitative results indicated a significant increase (˜33%) in the proliferation rate of progenitor stem cells in the subgranular zone (SGZ) of the hippocampus for both venlafaxine (P<0.01; n=5) and fluoxetine (P<0.01; n=5) versus saline controls. […]

Row | Compound | number of surviving cells in the SGZ relative to saline controls / basal levels (FIG. 1B) | number of surviving cells in the SGZ relative to saline controls / basal levels (FIG. 1B, listed as fluoxetine) | sustainability in the rate of proliferation and survivability of progenitor stem cells over basal levels (4 weeks after the last antidepressant dose) | overall number of surviving cells, venlafaxine versus fluoxetine (FIG. 1B, P<0.01) | more cells compared with fluoxetine (long-term survivability, venlafaxine versus fluoxetine)
1 | CNCCC(Oc1ccc(C(F)(F)F)cc1)c1ccccc1 (stereo not drawn) [Fluoxetine, fluoxetine] | significant preservation of proliferative and survivability effects over basal levels | increased the number of surviving cells in the SGZ |  |  | 
2 | COc1ccc(C(CN(C)C)C2(O)CCCCC2)cc1 (stereo not drawn) [Venlafaxine, venlafaxine] | increased the number of surviving cells in the SGZ |  | 80% | significant increase in the overall number of surviving cells | ~40%
